Experimental findings from patent publication US20250223268A1, “4-Methylsulfonylbenzamide Compound, Preparation Method, Herbicidal Composition And Use” (Jiangsu Flag Chemical Industry Co., Ltd., priority 2022, published 2025) are described below.

In general, inhibition refers to the change of the read-out against control, counted positive when it falls.

Holding throughout (assay type): in vivo
Data set [1] concerns Digitaria sanguinalis. As to the kind of experiment: Greenhouse herbicidal activity and crop safety comparison (Test Example 2). The method, boiled down:
(§1)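 Fresh weight inhibition, banded into grades A to E (E <20%), was rated 14-21 days after foliar spraying of 3-6 leaf plants, or 14-30 days after a soil spray applied 24 h post-sowing.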

Another data set deals with Zea mays. The data set is described as above. The gist of the method:
as §1

The subject of another data set is Cyperus iria. As to the kind of experiment: Greenhouse herbicidal activity assay, post-emergence. Particulars: Post-emergence test, rate 150 g a.i./hm^2, grade by fresh weight inhibition rate; for pest or weed control at 150 g/ha: Cyperus iria, read-out: Control efficacy grade, Cyperus iria. The method, boiled down:
(§2)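 Weeds and crops grown in pots of nutrient soil in a growth chamber to the 3-6 leaf stage, then foliar-sprayed and air-dried. Fresh weight inhibition scored 14-21 days after treatment and graded A (≥80%) through E (<20%).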

The subject of data set [2] is Digitaria sanguinalis. The data set is described as above. The settings on record: Post-emergence test, rate 150 g a.i./hm^2, grade by fresh weight inhibition rate; for pest or weed control at 150 g/ha: Digitaria sanguinalis, read-out: Control efficacy grade, Digitaria sanguinalis. The method, boiled down:
as §2

Data set [3] deals with Echinochloa crusgalli. Described as above. Particulars: Post-emergence test, rate 150 g a.i./hm^2, grade by fresh weight inhibition rate; for pest or weed control at 150 g/ha: Echinochloa crus-galli, read-out: Control efficacy grade, Echinochloa crusgalli. The method, boiled down:
as §2

The next data set deals with Eclipta prostrata. Described as above. The settings on record: Post-emergence test, rate 150 g a.i./hm^2, grade by fresh weight inhibition rate; for pest or weed control at 150 g/ha: Eclipta prostrata, read-out: Control efficacy grade, Eclipta prostrata. The gist of the method: as §2
Data set [4] has as its system Leptochloa chinensis. The description is as above. The settings on record: Post-emergence test, rate 150 g a.i./hm^2, grade by fresh weight inhibition rate; for pest or weed control at 150 g/ha: Dinebra chinensis, read-out: Control efficacy grade, Leptochloa chinensis. The method, boiled down:
as §2

In data set [5] the test system is Echinochloa crusgalli. As to the kind of experiment: Greenhouse herbicidal activity and crop safety comparison (Test Example 2). The settings on record: Rate 150 g/ha. The method, boiled down:
as §1

Data set [6] deals with Leptochloa chinensis. The description is as above. Particulars: Rate 150 g/ha. The method, boiled down: as §1
The test system of data set [7] is Oryza sativa subsp. indica. The data set is described as above. The settings on record: Rate 150 g/ha. The gist of the method: as §1
Data set [8] has as its system Oryza sativa subsp. japonica. Described as above. Particulars: Rate 150 g/ha. The method, boiled down:
as §1

Setting [9] is: Digitaria sanguinalis, Rate 75 g/ha, read-out: Digitaria sanguinalis, control efficacy grading (fresh weight inhibition rate).
Setting [10] is: Digitaria sanguinalis, Rate 150 g/ha, read-out: Digitaria sanguinalis, control efficacy grading (fresh weight inhibition rate).

`CCC[S+]([O-])c1c(S(C)(=O)=O)ccc(C(=O)Nc2nonc2C)c1Cl` (racemic) [Compound 4-2, 2-chloro-N-(4-methyl-1,2,5-oxadiazol-3-yl)-4-(methylsulfonyl)-3-(propylsulfinyl)benzamide]: the inhibition at 75 g/ha in the data set with Digitaria sanguinalis [1] (setting [9]) was 80 to 100%. In the data set on Digitaria sanguinalis [1] (setting [10]), the inhibition at 150 g/ha lay in the range of 80 to 100%. For the same compound, the “Zea mays, grading of fresh weight inhibition rate (crop safety)” value with Zea mays (Rate 18.75 g/ha), in the data set on Zea mays (Rate 75 g/ha) and in the data set with Zea mays (Rate 150 g/ha) was “E (Fresh weight inhibition rate<20%)” each time. For the same compound, the pest or weed control at 150 g/ha with Cyperus iria, in the data set on Digitaria sanguinalis [2], in the data set with Echinochloa crusgalli [3], with Eclipta prostrata and with Leptochloa chinensis [4] was 80 to 100% in each case.
For the compound `CCC[S+]([O-])c1c(S(C)(=O)=O)ccc(C(=O)Nc2nonc2C)c1Cl` (single isomer, unassigned) [Compound 4-3], the “Digitaria sanguinalis, control efficacy grading (fresh weight inhibition rate)” value in the data set on Digitaria sanguinalis [1] (Rate 18.75 g/ha), in the data set on Digitaria sanguinalis [1] (Rate 75 g/ha) and in the data set on Digitaria sanguinalis [1] (Rate 150 g/ha) was “A (Fresh weight inhibition rate≥80% to 100%)” in each case. Further, the “Zea mays, grading of fresh weight inhibition rate (crop safety)” value in the data set with Zea mays (Rate 18.75 g/ha), in the data set on Zea mays (Rate 75 g/ha) and in the data set with Zea mays (Rate 150 g/ha) was “E (Fresh weight inhibition rate<20%)” in each case. Moreover, in the data set with Cyperus iria, the “Control efficacy grade, Cyperus iria” value is reported as “A (Fresh weight inhibition rate≥80% to 100%)”. The “Control efficacy grade, Digitaria sanguinalis” value in the data set on Digitaria sanguinalis [2] is “A (Fresh weight inhibition rate≥80% to 100%)”. For the same compound, in the data set on Echinochloa crusgalli [3], the “Control efficacy grade, Echinochloa crusgalli” value is reported as “A (Fresh weight inhibition rate≥80% to 100%)”. In the data set with Eclipta prostrata, the “Control efficacy grade, Eclipta prostrata” value is given as “A (Fresh weight inhibition rate≥80% to 100%)”. Besides, the “Control efficacy grade, Leptochloa chinensis” value in the data set on Leptochloa chinensis [4] is reported as “A (Fresh weight inhibition rate≥80% to 100%)”.
Take `CCC[S+]([O-])c1c(S(C)(=O)=O)ccc(C(=O)Nc2nonc2C)c1Cl` (single isomer, unassigned) [Compound 4-4]: the “Digitaria sanguinalis, control efficacy grading (fresh weight inhibition rate)” value in the data set with Digitaria sanguinalis [1] (Rate 75 g/ha) and with Digitaria sanguinalis [1] (Rate 150 g/ha) was “A (Fresh weight inhibition rate≥80% to 100%)” throughout. In addition, the “Zea mays, grading of fresh weight inhibition rate (crop safety)” value in the data set with Zea mays (Rate 18.75 g/ha), with Zea mays (Rate 75 g/ha) and with Zea mays (Rate 150 g/ha) was “E (Fresh weight inhibition rate<20%)” each time. In the data set with Cyperus iria, the “Control efficacy grade, Cyperus iria” value is “A (Fresh weight inhibition rate≥80% to 100%)”. In addition, in the data set with Digitaria sanguinalis [2], the “Control efficacy grade, Digitaria sanguinalis” value is given as “A (Fresh weight inhibition rate≥80% to 100%)”. The “Control efficacy grade, Echinochloa crusgalli” value in the data set on Echinochloa crusgalli [3] is on record as “A (Fresh weight inhibition rate≥80% to 100%)”. Further, the “Control efficacy grade, Eclipta prostrata” value in the data set with Eclipta prostrata is recorded as “A (Fresh weight inhibition rate≥80% to 100%)”. The “Control efficacy grade, Leptochloa chinensis” value in the data set with Leptochloa chinensis [4] is “A (Fresh weight inhibition rate≥80% to 100%)”.
As for `Cc1nonc1NC(=O)c1ccc(S(C)(=O)=O)c([S+](C)[O-])c1Cl` (stereo not shown) [CK6, reference compound], the inhibition at 18.75 g/ha with Digitaria sanguinalis [1] (Digitaria sanguinalis, Rate 18.75 g/ha, read-out: Digitaria sanguinalis, control efficacy grading (fresh weight inhibition rate)) is less than 20%. The inhibition at 75 g/ha in the data set on Digitaria sanguinalis [1] (setting [9]) lay within 40 to 60%. In addition, the inhibition at 150 g/ha in the data set with Digitaria sanguinalis [1] (setting [10]) was 40 to 60%. Besides, the “Zea mays, grading of fresh weight inhibition rate (crop safety)” value is reported as “E (Fresh weight inhibition rate<20%)” in the data set on Zea mays (Rate 18.75 g/ha), “D (Fresh weight inhibition rate≥20% to <40%)” with Zea mays (Rate 75 g/ha) and “D (Fresh weight inhibition rate≥20% to <40%)” with Zea mays (Rate 150 g/ha).
For the compound `CCCS(=O)(=O)c1c(S(C)(=O)=O)ccc(C(=O)Nc2nnc(C3CC3)o2)c1Cl` [Compound 3-619], the “Echinochloa crusgalli, control efficacy grading (fresh weight inhibition rate)” value with Echinochloa crusgalli [5] is recorded as “A (Fresh weight inhibition rate≥80% to 100%)”. Also, the “Leptochloa chinensis, control efficacy grading (fresh weight inhibition rate)” value with Leptochloa chinensis [6] was “A (Fresh weight inhibition rate≥80% to 100%)”. The “Oryza sativa subsp. indica, grading of fresh weight inhibition rate (crop safety)” value in data set [7] is “E (Fresh weight inhibition rate<20%)”. Besides, the “Oryza sativa subsp. japonica, grading of fresh weight inhibition rate (crop safety)” value in data set [8] is “E (Fresh weight inhibition rate<20%)”. Also, the “Control efficacy grade, Cyperus iria” value in the data set on Cyperus iria is on record as “A (Fresh weight inhibition rate≥80% to 100%)”. The “Control efficacy grade, Digitaria sanguinalis” value with Digitaria sanguinalis [2] is “A (Fresh weight inhibition rate≥80% to 100%)”. Further, in the data set with Echinochloa crusgalli [3], the “Control efficacy grade, Echinochloa crusgalli” value was “A (Fresh weight inhibition rate≥80% to 100%)”. For the same compound, in the data set on Eclipta prostrata, the “Control efficacy grade, Eclipta prostrata” value is on record as “A (Fresh weight inhibition rate≥80% to 100%)”. Further, the “Control efficacy grade, Leptochloa chinensis” value in the data set on Leptochloa chinensis [4] is recorded as “A (Fresh weight inhibition rate≥80% to 100%)”.
With `CC(C)S(=O)(=O)c1c(S(C)(=O)=O)ccc(C(=O)Nc2nnc(C3CC3)o2)c1Cl` [Compound 3-624, 2-chloro-N-(5-cyclopropyl-1,3,4-oxadiazol-2-yl)-3-(isopropylsulfonyl)-4-(methylsulfonyl)benzamide], the inhibition at 150 g/ha in the data set with Echinochloa crusgalli [5] (Echinochloa crus-galli, read-out: Echinochloa crusgalli, control efficacy grading (fresh weight inhibition rate)) lay in the range of 80 to 100%; with Leptochloa chinensis [6] (Dinebra chinensis, read-out: Leptochloa chinensis, control efficacy grading (fresh weight inhibition rate)), 80 to 100%. For the same compound, in data set [7], the “Oryza sativa subsp. indica, grading of fresh weight inhibition rate (crop safety)” value was “E (Fresh weight inhibition rate<20%)”. The “Oryza sativa subsp. japonica, grading of fresh weight inhibition rate (crop safety)” value in data set [8] is reported as “E (Fresh weight inhibition rate<20%)”. Also, the pest or weed control at 150 g/ha in the data set on Cyperus iria, with Digitaria sanguinalis [2], with Echinochloa crusgalli [3], with Eclipta prostrata and with Leptochloa chinensis [4] was 80 to 100% each time.
As to `CS(=O)(=O)c1ccc(C(=O)Nc2nnc(C3CC3)o2)c(Cl)c1S(=O)(=O)C1CC1` [Compound 3-655], the “Echinochloa crusgalli, control efficacy grading (fresh weight inhibition rate)” value with Echinochloa crusgalli [5] is recorded as “A (Fresh weight inhibition rate≥80% to 100%)”. The “Leptochloa chinensis, control efficacy grading (fresh weight inhibition rate)” value in the data set on Leptochloa chinensis [6] is given as “A (Fresh weight inhibition rate≥80% to 100%)”. Moreover, the “Oryza sativa subsp. indica, grading of fresh weight inhibition rate (crop safety)” value in [7] is listed as “E (Fresh weight inhibition rate<20%)”. In [8], the “Oryza sativa subsp. japonica, grading of fresh weight inhibition rate (crop safety)” value was “E (Fresh weight inhibition rate<20%)”. Moreover, the “Control efficacy grade, Cyperus iria” value with Cyperus iria is given as “A (Fresh weight inhibition rate≥80% to 100%)”. Moreover, the “Control efficacy grade, Digitaria sanguinalis” value in the data set on Digitaria sanguinalis [2] is “A (Fresh weight inhibition rate≥80% to 100%)”. For the same compound, the “Control efficacy grade, Echinochloa crusgalli” value with Echinochloa crusgalli [3] was “A (Fresh weight inhibition rate≥80% to 100%)”. Besides, the “Control efficacy grade, Eclipta prostrata” value with Eclipta prostrata is reported as “A (Fresh weight inhibition rate≥80% to 100%)”. In addition, the “Control efficacy grade, Leptochloa chinensis” value in the data set with Leptochloa chinensis [4] is “A (Fresh weight inhibition rate≥80% to 100%)”.
On to `C=CCS(=O)(=O)c1c(S(C)(=O)=O)ccc(C(=O)Nc2nnc(C3CC3)o2)c1Cl` [Compound 3-690], for which the “Echinochloa crusgalli, control efficacy grading (fresh weight inhibition rate)” value in the data set on Echinochloa crusgalli [5] is listed as “A (Fresh weight inhibition rate≥80% to 100%)”. Further, in the data set on Leptochloa chinensis [6], the “Leptochloa chinensis, control efficacy grading (fresh weight inhibition rate)” value is on record as “A (Fresh weight inhibition rate≥80% to 100%)”. Besides, the “Oryza sativa subsp. indica, grading of fresh weight inhibition rate (crop safety)” value in data set [7] is “E (Fresh weight inhibition rate<20%)”. For the same compound, in data set [8], the “Oryza sativa subsp. japonica, grading of fresh weight inhibition rate (crop safety)” value is “E (Fresh weight inhibition rate<20%)”. In the data set on Cyperus iria, the “Control efficacy grade, Cyperus iria” value is given as “A (Fresh weight inhibition rate≥80% to 100%)”. Besides, the “Control efficacy grade, Digitaria sanguinalis” value in the data set on Digitaria sanguinalis [2] is “B (Fresh weight inhibition rate≥260% to <80%)”. Further, the “Control efficacy grade, Echinochloa crusgalli” value in the data set on Echinochloa crusgalli [3] was “A (Fresh weight inhibition rate≥80% to 100%)”. Further, the “Control efficacy grade, Eclipta prostrata” value in the data set on Eclipta prostrata is recorded as “A (Fresh weight inhibition rate≥80% to 100%)”. For the same compound, the “Control efficacy grade, Leptochloa chinensis” value in the data set with Leptochloa chinensis [4] is given as “A (Fresh weight inhibition rate≥80% to 100%)”.
